Target: T1, R.intestinalis-GH32 (Roseburia intestinalis, UniProt C7G9C0)
T1 construct: gene sacC; expressed from pET28a in E. coli BL21(DE3), cell-free extract; intracellular; cluster 3, only GH32 of the strain
T1 sequence (C7G9C0 1-563): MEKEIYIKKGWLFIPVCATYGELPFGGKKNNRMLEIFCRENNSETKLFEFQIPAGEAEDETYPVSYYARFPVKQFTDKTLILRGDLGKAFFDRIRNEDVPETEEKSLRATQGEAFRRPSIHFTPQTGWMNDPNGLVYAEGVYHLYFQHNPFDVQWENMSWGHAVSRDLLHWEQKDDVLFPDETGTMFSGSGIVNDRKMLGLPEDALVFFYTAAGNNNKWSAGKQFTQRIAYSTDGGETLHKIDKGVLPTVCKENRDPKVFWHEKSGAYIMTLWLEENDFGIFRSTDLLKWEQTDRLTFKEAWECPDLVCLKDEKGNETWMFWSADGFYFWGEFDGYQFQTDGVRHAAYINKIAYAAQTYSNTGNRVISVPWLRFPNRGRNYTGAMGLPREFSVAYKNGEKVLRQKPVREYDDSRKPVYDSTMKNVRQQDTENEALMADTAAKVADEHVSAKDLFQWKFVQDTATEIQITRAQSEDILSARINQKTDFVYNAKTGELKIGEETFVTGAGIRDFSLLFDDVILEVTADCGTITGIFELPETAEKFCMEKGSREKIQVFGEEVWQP
Assay: degradation by E. coli cell-free extract
Format: biochemical

SMILES | degradation by E. coli cell-free extract
OC[C@H]1O[C@@](CO)(OC[C@@]2(O[C@H]3O[C@H](CO)[C@@H](O)[C@H](O)[C@H]3O)O[C@H](CO)[C@@H](O)[C@@H]2O)[C@@H](O)[C@@H]1O [kestose] | cell-free extracts containing R.intestinalis-GH32
OC[C@H]1O[C@@](CO)(OC[C@@]2(OC[C@@]3(O[C@H]4O[C@H](CO)[C@@H](O)[C@H](O)[C@H]4O)O[C@H](CO)[C@@H](O)[C@@H]3O)O[C@H](CO)[C@@H](O)[C@@H]2O)[C@@H](O)[C@@H]1O [nystose] | cell-free extracts containing R.intestinalis-GH32
